Results published in EP4095134A1, “POLYCYCLIC COMPOUNDS FOR THE TREATMENT OF NEUROLOGICAL INDICATIONS” (UCL Business Ltd, priority 2021, dated 2022).

Target: T1, P2Y1 receptor (Homo sapiens, UniProt P47900)
T1 construct: expressed in transfected cells
Test: P2Y1 IP1 accumulation HTRF assay, antagonism of agonist MRS2365 in stably transfected cells
Assay type: cell-based
Conditions: racemic; 5nM MRS2365; values rounded to nearest whole number; N >= 4
Protocol: IC50 values were determined using a cell based assay in stably transfected cells overexpressing the P2Y1 receptor. The assay system is a […] (HTRF) assay measuring accumulation of the intracellular messenger inositol monophosphate (IP1), generated intracellularly following activation of P2Y1. Activity of test compounds was generated by measuring antagonism of the increase in IP1 generated by addition of a selective P2Y1 agonist, MRS2365.
P2Y1 overexpressing cells were maintained in T175 flasks. The day before the assay, these cells were split and 20µl cell suspension transferred to each well of white 384-well assay plates at a cell density of 0.5x10^6 cells/mL. Plates were pulse centrifuged, then incubated overnight at 37°C / 5% CO2 prior to assay.
On day of assay, medium was removed from cells and replaced with stimulation buffer. Compounds were prepared in 100% DMSO for addition to cells using the Tecan D300e digital dispenser; compounds were prepared in cassette heads and added directly to wells in the required concentration range, to give a 10-point concentration response curve from 10µM with semi-log dilutions and a final DMSO concentration of 0.1%. Positive control antagonist curves with standard compounds were included on each plate. Plates were incubated with antagonists for 1 hour prior to addition of 5nM of the agonist MRS2365, dispensed using a Bravo liquid handler. Following agonist addition, plates were incubated for 60 minutes prior to assay. Both incubations were carried out at 37°C / 5% CO2.
For the assay, IP1 accumulation was quantified using the IPOne kit according to manufacturer's instructions. In short, a standard curve was prepared for IP 1 quantification, and cells lysed using kit lysis buffer. Assay reagents were added to the lysates, and incubated for 1 hour at room temperature without spinning or shaking. Plates were analysed on a BMG Pherastar plate reader, and IP1 signal generated in cells interpolated from the standard curve.
For all reported results, N is greater than or equal to 4. An individual N refers to one assay run with a single weighing of compound. A minimum of two assay runs were performed for each of two independent weighings of compound. Results (racemic)

T1 sequence (P47900 whole entry): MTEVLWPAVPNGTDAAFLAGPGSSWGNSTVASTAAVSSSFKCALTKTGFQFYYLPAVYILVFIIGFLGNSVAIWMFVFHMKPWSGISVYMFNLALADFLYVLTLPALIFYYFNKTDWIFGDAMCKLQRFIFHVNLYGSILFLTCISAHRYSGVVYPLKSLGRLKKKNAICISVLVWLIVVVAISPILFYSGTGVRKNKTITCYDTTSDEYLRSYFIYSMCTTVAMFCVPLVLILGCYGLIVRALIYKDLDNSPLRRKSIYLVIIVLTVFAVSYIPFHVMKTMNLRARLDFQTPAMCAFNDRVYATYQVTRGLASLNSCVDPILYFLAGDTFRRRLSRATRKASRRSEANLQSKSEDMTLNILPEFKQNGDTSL

Row | SMILES | IC50
1 | Cc1ccc(NC(=O)Nc2ccc(C(C)C)cc2)c(Oc2ccccc2C2(C(F)(F)F)CCO2)n1 (racemic) [S1] | 0.02 µM
2 | Cc1ccc(NC(=O)Nc2ccc(OC(F)(F)F)cc2F)c(Oc2ccccc2C2(C(F)(F)F)CCO2)n1 (racemic) [S2, 1-(2-fluoro-4-(trifluoromethoxy)phenyl)-3-(6-methyl-2-(2-(2-(trifluoromethyl)oxetan-2-yl)phenoxy)pyridin-3-yl)urea] | 0.033 µM
3 | Cc1ccc(NC(=O)Nc2ccc(OC(F)(F)F)cc2F)c(Oc2ccccc2C2(C(F)(F)F)CCN2C)n1 (racemic) [S3] | 0.04 µM
4 | Cc1ccc(NC(=O)Nc2ccc(Cl)cc2F)c(Oc2ccccc2C2(C(F)(F)F)CCO2)n1 (racemic) [S4, 1-(4-chloro-2-fluorophenyl)-3-(6-methyl-2-(2-(2-(trifluoromethyl)oxetan-2-yl)phenoxy)pyridin-3-yl)urea] | 0.043 µM
5 | CCN1CCC1(c1ccccc1Oc1ncccc1NC(=O)Nc1ccc(OC(F)(F)F)cc1)C(F)(F)F (racemic) [S5] | 0.043 µM
6 | Cc1ccc(NC(=O)Nc2ccc(OC(F)(F)F)cc2)c(Oc2ccccc2C2(C(F)(F)F)CCN2C)n1 (racemic) [S6] | 0.05 µM
7 | Cc1ccc(NC(=O)Nc2ccc(OC(F)(F)F)cc2)c(Oc2ccccc2C2(C(F)(F)F)CCO2)n1 (racemic) [S7, 1-(6-methyl-2-(2-(2-(trifluoromethyl)oxetan-2-yl)phenoxy)pyridin-3-yl)-3-(4-(trifluoromethoxy)phenyl)urea] | 0.055 µM
8 | O=C(Nc1ccc(OC(F)(F)F)cc1)Nc1cccnc1Oc1ccccc1C1(C(F)(F)F)CCN1Cc1ccccc1 (racemic) [S8] | 0.064 µM
9 | O=C(Nc1ccc(OC(F)(F)F)cc1F)Nc1cccnc1Oc1ccccc1C1(C(F)(F)F)CCO1 (racemic) [S9, 1-(2-fluoro-4-(trifluoromethoxy)phenyl)-3-(2-(2-(2-(trifluoromethyl)oxetan-2-yl)phenoxy)pyridin-3-yl)urea] | 0.066 µM
10 | CN1CCC1(c1ccccc1Oc1ncccc1NC(=O)Nc1ccc(Cl)cc1F)C(F)(F)F (racemic) [S10] | 0.078 µM
11 | O=C(Nc1ccc(OC(F)(F)F)cc1)Nc1cccnc1Oc1ccccc1C1(C(F)(F)F)CCO1 (racemic) [S11, 1-(4-(trifluoromethoxy)phenyl)-3-(2-(2-(2-(trifluoromethyl)oxetan-2-yl)phenoxy)pyridin-3-yl)urea] | 0.084 µM
12 | O=C(Nc1ccc(OC(F)(F)F)cc1F)Nc1cccnc1Oc1cc(F)ccc1C1(C(F)(F)F)CCO1 (racemic) [S12] | 0.087 µM
13 | O=C(Nc1ccc(S(F)(F)(F)(F)F)cc1F)Nc1cccnc1Oc1ccccc1C1(C(F)(F)F)CCO1 (racemic) [S13, 1-(2-fluoro-4-(pentafluoro-λ^6-sulfaneyl)phenyl)-3-(2-(2-(2-(trifluoromethyl)oxetan-2-yl)phenoxy)pyridin-3-yl)urea] | 0.093 µM
14 | O=C(Nc1ccc(OC(F)(F)F)cc1F)Nc1ccc(Cl)nc1Oc1ccccc1C1(C(F)(F)F)CCO1 (racemic) [S14, 1-(6-chloro-2-(2-(2-(trifluoromethyl)oxetan-2-yl)phenoxy)pyridin-3-yl)-3-(2-fluoro-4-(trifluoromethoxy)phenyl)urea] | 0.094 µM
15 | Cc1ccc(NC(=O)Nc2ccc(OC3CC(F)(F)C3)cc2)c(Oc2ccccc2C2(C(F)(F)F)CCO2)n1 (racemic) [S15, 1-(4-(3,3-difluorocyclobutoxy)phenyl)-3-(6-methyl-2-(2-(2-(trifluoromethyl)oxetan-2-yl)phenoxy)pyridin-3-yl)urea] | 0.105 µM
16 | Cc1ccc(NC(=O)Nc2ccc(Cl)cc2F)c(Oc2ccc(F)cc2C2(C(F)(F)F)CCO2)n1 (racemic) [S16, 1-(4-chloro-2-fluorophenyl)-3-(2-(4-fluoro-2-(2-(trifluoromethyl)oxetan-2-yl)phenoxy)-6-methylpyridin-3-yl)urea] | 0.108 µM
17 | Cc1ccc(NC(=O)Nc2ccc(Cl)c(F)c2)c(Oc2ccccc2C2(C(F)(F)F)CCO2)n1 (racemic) [S17, 1-(4-chloro-3-fluorophenyl)-3-(6-methyl-2-(2-(2-(trifluoromethyl)oxetan-2-yl)phenoxy)pyridin-3-yl)urea] | 0.114 µM
18 | Cc1ccc(NC(=O)Nc2ccc(Cl)cc2)c(Oc2ccccc2C2(C(F)(F)F)CCO2)n1 (racemic) [S18, 1-(4-chlorophenyl)-3-(6-methyl-2-(2-(2-(trifluoromethyl)oxetan-2-yl)phenoxy)pyridin-3-yl)urea] | 0.118 µM
19 | Cc1ccc(NC(=O)Nc2ccc(OC(F)(F)F)cc2)c(Oc2ccc(F)cc2C2(C(F)(F)F)CCO2)n1 (racemic) [S19, 1-(2-(4-fluoro-2-(2-(trifluoromethyl)oxetan-2-yl)phenoxy)-6-methylpyridin-3-yl)-3-(4-(trifluoromethoxy)phenyl)urea] | 0.12 µM
20 | O=C(Nc1ccc(OC(F)(F)F)cc1)Nc1ccc(Cl)nc1Oc1ccccc1C1(C(F)(F)F)CCO1 (racemic) [S20, 1-(6-chloro-2-(2-(2-(trifluoromethyl)oxetan-2-yl)phenoxy)pyridin-3-yl)-3-(4-(trifluoromethoxy)phenyl)urea] | 0.125 µM
21 | O=C(Nc1ccc(OC(F)(F)F)cc1F)Nc1cccnc1Oc1ccc(F)cc1C1(C(F)(F)F)CCO1 (racemic) [S21, 1-(2-(4-fluoro-2-(2-(trifluoromethyl)oxetan-2-yl)phenoxy)pyridin-3-yl)-3-(2-fluoro-4-(trifluoromethoxy)phenyl)urea] | 0.14 µM
22 | O=C(Nc1ccc(Cl)cc1F)Nc1ccc(Cl)nc1Oc1ccccc1C1(C(F)(F)F)CCO1 (racemic) [S22, 1-(6-chloro-2-(2-(2-(trifluoromethyl)oxetan-2-yl)phenoxy)pyridin-3-yl)-3-(4-chloro-2-fluorophenyl)urea] | 0.141 µM
23 | O=C(Nc1ccc(OC(F)(F)F)c(F)c1)Nc1cccnc1Oc1ccccc1C1(C(F)(F)F)CCO1 (racemic) [S23, 1-(3-fluoro-4-(trifluoromethoxy)phenyl)-3-(2-(2-(2-(trifluoromethyl)oxetan-2-yl)phenoxy)pyridin-3-yl)urea] | 0.145 µM
24 | O=C(Nc1ccc(Cl)cc1)Nc1ccc(Cl)nc1Oc1ccccc1C1(C(F)(F)F)CCO1 (racemic) [S24, 1-(6-chloro-2-(2-(2-(trifluoromethyl)oxetan-2-yl)phenoxy)pyridin-3-yl)-3-(4-chlorophenyl)urea] | 0.145 µM

The next lines start with the values.

Row | IC50 | SMILES
25 | 0.146 µM | O=C(Nc1ccc(C(F)(F)F)cc1)Nc1cccnc1Oc1ccccc1C1(C(F)(F)F)CCO1 (racemic) [S25, 1-(2-(2-(2-(trifluoromethyl)oxetan-2-yl)phenoxy)pyridin-3-yl)-3-(4-(trifluoromethyl)phenyl)urea]
26 | 0.152 µM | O=C(Nc1ccc(OC(F)(F)F)cc1)Nc1cccnc1Oc1ccc(F)cc1C1(C(F)(F)F)CCO1 (racemic) [S26, 1-(2-(4-fluoro-2-(2-(trifluoromethyl)oxetan-2-yl)phenoxy)pyridin-3-yl)-3-(4-(trifluoromethoxy)phenyl)urea]
27 | 0.153 µM | O=C(Nc1ccc(Cl)cc1)Nc1cccnc1Oc1ccccc1C1(C(F)(F)F)CCO1 (racemic) [S27, 1-(4-chlorophenyl)-3-(2-(2-(2-(trifluoromethyl)oxetan-2-yl)phenoxy)pyridin-3-yl)urea]
28 | 0.157 µM | O=C(Nc1ccc(S(F)(F)(F)(F)F)cc1)Nc1cccnc1Oc1ccccc1C1(C(F)(F)F)CCO1 (racemic) [S28, 1-(4-(pentafluoro-λ^6-sulfaneyl)phenyl)-3-(2-(2-(2-(trifluoromethyl)oxetan-2-yl)phenoxy)pyridin-3-yl)urea]
29 | 0.165 µM | O=C(Nc1ccc(Cl)cc1F)Nc1cccnc1Oc1ccccc1C1(C(F)(F)F)CCO1 (racemic) [S29, 1-(4-chloro-2-fluorophenyl)-3-(2-(2-(2-(trifluoromethyl)oxetan-2-yl)phenoxy)pyridin-3-yl)urea]
30 | 0.166 µM | O=C(Nc1ccc(Cl)cc1F)Nc1cccnc1Oc1ccc(F)cc1C1(C(F)(F)F)CCO1 (racemic) [S30, 1-(4-chloro-2-fluorophenyl)-3-(2-(4-fluoro-2-(2-(trifluoromethyl)oxetan-2-yl)phenoxy)pyridin-3-yl)urea]
31 | 0.168 µM | O=C(Nc1ccc(OC(F)(F)F)cc1)Nc1cccnc1Oc1cc(F)ccc1C1(C(F)(F)F)CCO1 (racemic) [S31]
32 | 0.169 µM | Cc1ccc(NC(=O)Nc2ccc(Cl)cc2)c(Oc2ccc(F)cc2C2(C(F)(F)F)CCO2)n1 (racemic) [S32, 1-(4-chlorophenyl)-3-(2-(4-fluoro-2-(2-(trifluoromethyl)oxetan-2-yl)phenoxy)-6-methylpyridin-3-yl)urea]
33 | 0.179 µM | O=C(Nc1ccc(OC(F)(F)F)cc1)Nc1cccnc1Oc1ccc(F)cc1C1(C(F)(F)F)CCO1 (racemic) [S33]
34 | 0.196 µM | Cc1ccc(NC(=O)Nc2nc3ccc(C)nc3s2)c(Oc2ccc(F)cc2C2(C(F)(F)F)CCO2)n1 (racemic) [S34, 1-(2-(4-fluoro-2-(2-(trifluoromethyl)oxetan-2-yl)phenoxy)-6-methylpyridin-3-yl)-3-(5-methylthiazolo[5,4-b]pyridin-2-yl)urea]
35 | 0.197 µM | CN1CCC1(c1ccccc1Oc1ncccc1NC(=O)Nc1ccc(OC(F)(F)F)cc1)C(F)F (racemic) [S35]
